Measured values from US20240239786A1, “COMPOSITIONS AND METHODS FOR THE TREATMENT AND PREVENTION OF CANCER” (Yale University, priority 2021, published 2024).

Test system: PEO4 cells
Assay: Flow cytometric EdU incorporation (DNA synthesis) assay, PEO4
Type: cell-based
Conditions: for time-dependent inhibition of DNA synthesis (EdU-positive cells): 30 μM DB4 or 1 μM triapine, 3, 6, 24 hr
Experimental: Cells were plated for 24 hr and then treated with 50 μM compounds for 72 hr. For a positive control, cells were treated with 1 μM triapine for 72 hr. The percentage of cell survival was determined by the MTS cytotoxicity assay. […] Cells were treated with 50 μM compounds or 1 μM triapine for 24 hr. During the last hour, cells were pulse-labeled with EdU, stained with the Click-iT EdU Alexa Fluor 488 Assay Kit, counterstained with 7-AAD, and subsequently analyzed by flow cytometry. EdU-positive cells were gated to determine the percentage of the S phase cell population. The bivariate plots of Alexa Fluor 488 (EdU-positive) and PE-Cy5 (7-AAD-positive) are shown. […] Cells were treated with 50 μM compounds or 1 μM triapine for 24 hr. During the last hour, cells were pulse-labeled with EdU, stained with the Click-iT EdU Alexa Fluor 488 Assay Kit, counterstained with 7-AAD, and subsequently analyzed by flow cytometry. EdU-positive cells were gated to determine the percentage of the S phase cell population. The percentages of DNA synthesis in cells treated with each of 10 compounds and triapine relative to the DMSO-treated control is calculated and shown. FIG. 2D depicts representative results of dNTP measurement on triapine and DB4 in PEO4 cells. Cells were treated with 1 μM triapine or 50 μM DB4 for 24 hr. Cells were extracted with 65% methanol for determination of each of dNTPs expressed as pmole/10^6 cells. Data are means±SD (N=3). *, p<0.05; **, p<0.01; ***, p<0.001, compared with the DMSO-treated control in each dNTP. […] The percentage of cell survival was determined by the MTS cytotoxicity assay. […]
PEO1 cells were treated with 30 μM DB4 or 1 μM triapine for indicated times, pulsed with EdU for 1 hr and subsequently assayed for DNA synthesis inhibition as described in FIG. 2B. […] Protein was analyzed by western blotting for p-Chk1, p-ATR, p-RPA32, γH2AX, and HSC70. […] DSB end resection is assessed by the level of p-RPA32. […]

| SMILES | time-dependent inhibition of DNA synthesis (EdU-positive cells) | inhibition at 50 µM (50 μM, 24 hr) |
| --- | --- | --- |
| C=CCn1c(SCc2cccc(Cl)c2)nnc1C1CCN(Cc2nc3ccccc3s2)CC1 [DB4, 2-[(4-{4-allyl-5-[(3-chlorobenzyl)thio]-4H-1,2,4-triazol-3-yl}-1-piperidinyl)methyl]-1,3-benzothiazole] | gradual decline in the EdU-positive cell population | > 99% |
| NC(=S)NN=Cc1ncccc1N [triapine, 3-aminopyridine-2-carboxaldehyde-thiosemicarbazone, reference compound] | prompt reduction in EdU-positive cells |  |
